Test results: patent US20090023773A1, “COMPOSITIONS AND METHODS FOR MODULATING GATED ION CHANNELS” (PainCeptor Pharma Corporation, priority 2007, published 2009)

Molecular target: T1, recombinant homomeric hASIC1a channels (Homo sapiens, UniProt P78348)
T1 construct: expressed in transfected cells; host or cells: Xenopus laevis oocytes (nuclear microinjection of expression vector such as pcDNA3)
T1 sequence (P78348 1-528): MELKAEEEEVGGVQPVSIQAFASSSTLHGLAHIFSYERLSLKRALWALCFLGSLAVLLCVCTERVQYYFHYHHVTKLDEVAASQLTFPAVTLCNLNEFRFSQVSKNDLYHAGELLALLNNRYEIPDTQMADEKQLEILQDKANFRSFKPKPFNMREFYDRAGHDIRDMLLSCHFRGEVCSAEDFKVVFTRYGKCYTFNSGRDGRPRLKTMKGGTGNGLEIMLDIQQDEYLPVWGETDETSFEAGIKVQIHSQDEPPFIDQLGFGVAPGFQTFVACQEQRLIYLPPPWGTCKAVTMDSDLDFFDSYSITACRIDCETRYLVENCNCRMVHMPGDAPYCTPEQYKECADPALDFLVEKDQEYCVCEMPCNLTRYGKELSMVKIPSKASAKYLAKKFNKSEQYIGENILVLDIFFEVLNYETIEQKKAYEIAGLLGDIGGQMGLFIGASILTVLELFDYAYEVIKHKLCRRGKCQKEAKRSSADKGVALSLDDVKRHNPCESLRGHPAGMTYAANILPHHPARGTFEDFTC
Experiment: Two-electrode voltage clamp in Xenopus laevis oocytes expressing gated ion channels (Example 4)
Type: cell-based
Conditions: generated using oocytes as in Example 4

Row | SMILES | IC50 (Table 1) | IC50 (Table 2)
1 | Cc1cc(O[C@H]2CCCN(Cc3ccccc3)C2)c2ccccc2n1 [Compound 20] | > 30 µM | –
2 | Cc1cc(OC2CCN(Cc3ccccc3)CC2)c2ccc(F)cc2n1 [Compound 80] | – | > 30 µM
3 | COc1ccc2cc(CN3CCC(Oc4cc(C)nc5c(F)cccc45)CC3)ccc2c1 [Compound 87] | – | 10.1 to 20 µM
4 | Cc1cc(OC2CCN(Cc3ccc4ccccc4c3)CC2)c2cccc(F)c2n1 [Compound 84] | – | > 30 µM
5 | C=CCOC(=O)N1CCC(Oc2nc(C)nc3ccccc23)CC1 [Compound 10] | 0.1 to 10 µM | –
6 | Cc1cc(OC2CCN(Cc3ccccc3-c3nnn[nH]3)CC2)c2cc(O)ccc2n1 [Compound 56] | – | 0.1 to 10 µM
7 | Cc1cc(OC2CCN(Cc3c(F)cccc3C#N)CC2)c2cccc(F)c2n1 [Compound 42] | – | 0.1 to 10 µM
8 | Cc1cc(OC2CCCN(Cc3ccccc3)C2)c2ccccc2n1 (centres unmarked) [Compound 19] | > 30 µM | –
9 | Cc1cc(OC2CCN(Cc3ccc(O)cc3)CC2)c2cccc(F)c2n1 [Compound 26, 4-((4-(8-fluoro-2-methylquinolin-4-yloxy)piperidin-1-yl)methyl)phenol] | 0.1 to 10 µM | –
10 | Cc1cc(OC2CCN(Cc3ccccc3)C3CCCCC23)c2cccc(F)c2n1 (centres unmarked) [Compound 74] | – | 0.1 to 10 µM
11 | Cc1cc(OC2CCN(Cc3ccc(C(=O)O)cc3)CC2)c2ccccc2n1 [Compound 66] | – | > 30 µM
12 | Cc1cc(OC2CCN(Cc3ccc(Br)cc3F)CC2)c2cccc(F)c2n1 [Compound 78] | – | 20.1 to 30 µM
13 | COc1cc(OC)c(CN2CCC(Oc3cc(C)nc4c(F)cccc34)CC2)c(C(=O)O)c1 [Compound 81] | – | > 30 µM
14 | Cc1cc(OC2CCN(Cc3ccccc3F)CC2)c2cccc(F)c2n1 [Compound 2] | 0.1 to 10 µM | –
15 | COc1ccc(F)c2c(OC3CCN(Cc4ccccc4C#N)CC3)cc(C)nc12 [Compound 35] | – | > 30 µM
16 | Cc1cc(OC2CCN(Cc3ccc(O)c(O)c3)CC2)c2ccccc2n1 [Compound 88] | – | 0.1 to 10 µM
17 | COc1ccc(CC2CCC(Oc3cc(C)nc4c(F)cccc34)CC2)cc1 (centres unmarked) [Compound 69] | – | > 30 µM
18 | COC(=O)c1ccc(NC(=O)c2ccccc2CN2CCC(Oc3cc(C)nc4c(F)cccc34)CC2)cc1 [Compound 51] | – | 10.1 to 20 µM

Row | SMILES | IC50 (Table 1) | IC50 (Table 2)
19 | Cc1cc(NC2CCN(Cc3ccccc3)CC2)c2ccccc2n1 [Compound 40] | – | > 30 µM
20 | Cc1cc(OC2CCN(Cc3c(F)cccc3C(=O)O)CC2)c2cccc(F)c2n1 [Compound 23] | > 30 µM | –
21 | Cc1nc(OC2CCN(Cc3ccccc3F)CC2)c2ccccc2n1 [Compound 8] | > 30 µM | –
22 | Cc1cc(OC2CCCN(Cc3ccccc3)CC2)c2cccc(F)c2n1 (centres unmarked) [Compound 75] | – | > 30 µM
23 | COc1cccc2c(OC3CCN(Cc4ccccc4)CC3)cc(C)nc12 [Compound 11] | 0.1 to 10 µM | –
24 | Cc1nc(OC2CCN(Cc3ccccc3)CC2)c2ccccc2n1 [Compound 7] | 10.1 to 20 µM | –
25 | Cc1cc(OC2CC(C)(C)N(Cc3ccccc3)C(C)(C)C2)c2ccccc2n1 [Compound 4] | > 30 µM | –
26 | Cc1cc(OC2CCN(Cc3ccccc3-c3nnn[nH]3)CC2)c2cc(Br)ccc2n1 [Compound 59] | – | > 30 µM
27 | Cc1cc(OC2CCN(Cc3ccccc3C(=O)O)CC2)c2cc(O)ccc2n1 [Compound 24] | > 30 µM | –
28 | COc1cc(F)cc2c(OC3CCN(Cc4ccccc4C#N)CC3)cc(C)nc12 [Compound 34] | – | > 30 µM
29 | Cc1cc(OC2CCN(Cc3ccccc3)CC2)c2cc(F)ccc2n1 [Compound 29] | – | 0.1 to 10 µM
30 | Cc1cc(OC2CCN(Cc3ccccc3C#N)CC2)c2cc(Br)ccc2n1 [Compound 57] | – | > 30 µM
31 | Cc1cc(OC2CCN(Cc3ccccc3)CC2)c2cc(C#N)ccc2n1 [Compound 46] | – | 20.1 to 30 µM
32 | COc1cccc2c(OC3CCN(Cc4ccccc4-c4nnn[nH]4)CC3)cc(C)nc12 [Compound 93] | – | 20.1 to 30 µM
33 | Cc1cc(OC2CCN(Cc3cccc(C(=O)O)c3)CC2)c2cc(O)ccc2n1 [Compound 92] | – | > 30 µM
34 | Cc1cc(OC2CCN(C(C)c3ccccc3C(=O)O)CC2)c2cccc(F)c2n1 (centres unmarked) [Compound 15] | 0.1 to 10 µM | –
35 | Cc1cc(OC2CCN(Cc3ccc(F)c(C#N)c3)CC2)c2ccccc2n1 [Compound 65] | – | > 30 µM
